Results published in ChEMBL document CHEMBL4431326, “Tumor Targeting with Novel 6-Substituted Pyrrolo [2,3-d] Pyrimidine Antifolates with Heteroatom Bridge Substitutions via Cellular Uptake by Folate Receptor α and the Proton-Coupled Folate Transporter and Inhibition of de Novo Purine Nucleotide Biosynthesis” (J Med Chem, 2016).
Activity calls are given as the source filed them. The calls are words filed in the database; no cut-off is given here.

target: Folate receptor alpha (Homo sapiens) (UniProt P15328); assay: Displacement of [3H]folic acid from human FR-alpha receptor expressed in Chinese hamster RT16 cells measured after 15 mins relative to folic acid; format: cell-based; design: concentration or dose not given beside the values; settings: not given
Sequence (P15328 25-234 limits assumed): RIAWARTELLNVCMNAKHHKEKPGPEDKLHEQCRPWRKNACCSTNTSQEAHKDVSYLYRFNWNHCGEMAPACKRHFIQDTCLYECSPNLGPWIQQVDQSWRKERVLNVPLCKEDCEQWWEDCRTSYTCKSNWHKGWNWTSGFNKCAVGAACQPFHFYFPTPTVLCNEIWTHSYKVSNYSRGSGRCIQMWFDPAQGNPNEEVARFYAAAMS

| SMILES | inhibition [%] |
| --- | --- |
| Nc1nc2[nH]c(CCOc3ccc(C(=O)N[C@@H](CCC(=O)O)C(=O)O)cc3)cc2c(=O)[nH]1 | 60 to 110 |
| Nc1nc2[nH]c(CCN(C(=O)C(F)(F)F)c3ccc(C(=O)N[C@@H](CCC(=O)O)C(=O)O)cc3)cc2c(=O)[nH]1 | < 15 |

target: T1, GAR transformylase/AICAR transformylase (Homo sapiens) (UniProt P31939+P22102); assay: Inhibition of GARFTase/AICARFTase in human KB cells expressing RFC/FR-alpha/PCFT assessed as cell growth inhibition measured after 96 hrs in presence of 10 uM thymidine by Cell-Titer Blue fluorescence analysis; format: cell-based; settings: not given
T1 sequence (P31939 whole entry, looked up, one chain of several): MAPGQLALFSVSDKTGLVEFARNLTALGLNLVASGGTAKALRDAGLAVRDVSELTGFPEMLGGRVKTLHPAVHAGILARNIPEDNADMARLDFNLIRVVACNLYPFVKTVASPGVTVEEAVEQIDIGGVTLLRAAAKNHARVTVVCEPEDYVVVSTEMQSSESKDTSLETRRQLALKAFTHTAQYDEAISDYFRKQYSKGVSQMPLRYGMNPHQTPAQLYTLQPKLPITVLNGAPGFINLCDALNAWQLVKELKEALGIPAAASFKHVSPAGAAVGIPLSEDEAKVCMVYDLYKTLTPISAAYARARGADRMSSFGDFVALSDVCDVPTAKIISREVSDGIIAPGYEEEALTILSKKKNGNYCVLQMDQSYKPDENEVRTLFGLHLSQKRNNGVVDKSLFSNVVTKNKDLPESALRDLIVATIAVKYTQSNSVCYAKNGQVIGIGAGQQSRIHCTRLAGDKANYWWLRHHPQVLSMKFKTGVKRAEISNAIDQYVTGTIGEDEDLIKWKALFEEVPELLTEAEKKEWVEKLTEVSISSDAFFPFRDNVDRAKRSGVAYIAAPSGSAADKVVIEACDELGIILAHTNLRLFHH

| SMILES | inhibition |
| --- | --- |
| Nc1nc2[nH]c(CCOc3ccc(C(=O)N[C@@H](CCC(=O)O)C(=O)O)cc3)cc2c(=O)[nH]1 | Active |
| Nc1nc2[nH]c(CCN(C(=O)C(F)(F)F)c3ccc(C(=O)N[C@@H](CCC(=O)O)C(=O)O)cc3)cc2c(=O)[nH]1 | Active |

target: T2, Proton-coupled folate transporter (Homo sapiens) (UniProt Q96NT5); assay: Inhibition of [3H]MTX uptake at human PCFT expressed in Chinese hamster R2/PCFT4 cells at 1 uM and pH 5.5 measured after 5 mins; format: cell-based; settings: not given
T2 sequence (whole entry): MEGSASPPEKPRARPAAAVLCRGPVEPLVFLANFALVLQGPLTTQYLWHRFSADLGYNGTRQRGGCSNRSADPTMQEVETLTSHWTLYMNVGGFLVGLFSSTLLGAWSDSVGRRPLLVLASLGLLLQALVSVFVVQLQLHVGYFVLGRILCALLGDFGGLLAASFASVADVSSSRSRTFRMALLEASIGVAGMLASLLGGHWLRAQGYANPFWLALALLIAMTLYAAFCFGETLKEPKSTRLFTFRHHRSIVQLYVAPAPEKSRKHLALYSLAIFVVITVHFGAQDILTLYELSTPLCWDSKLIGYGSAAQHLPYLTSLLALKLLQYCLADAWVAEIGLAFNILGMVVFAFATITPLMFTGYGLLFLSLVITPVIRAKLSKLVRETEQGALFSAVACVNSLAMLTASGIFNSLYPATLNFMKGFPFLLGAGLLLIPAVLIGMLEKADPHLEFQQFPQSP

| SMILES | inhibition |
| --- | --- |
| Nc1nc2[nH]c(CCCc3ccc(C(=O)N[C@@H](CCC(=O)O)C(=O)O)cc3)cc2c(=O)[nH]1 | Active |
| Nc1nc2[nH]c(CCOc3ccc(C(=O)N[C@@H](CCC(=O)O)C(=O)O)cc3)cc2c(=O)[nH]1 | 30 to 60% |
| Nc1nc2[nH]c(CCN(C(=O)C(F)(F)F)c3ccc(C(=O)N[C@@H](CCC(=O)O)C(=O)O)cc3)cc2c(=O)[nH]1 | 30 to 60% |

test system: KB; assay: Antiproliferative activity against human KB cells expressing human RFC/FR-alpha/PCFT assessed as reduction in cell viability measured after 96 hrs by Cell-Titer Blue fluorescence analysis; format: functional, cell-based; settings: not given

| SMILES | IC50 [nM] |
| --- | --- |
| Nc1nc2[nH]c(CCOc3ccc(C(=O)N[C@@H](CCC(=O)O)C(=O)O)cc3)cc2c(=O)[nH]1 | 0.34 |
| Nc1nc2[nH]c(CCN(C(=O)C(F)(F)F)c3ccc(C(=O)N[C@@H](CCC(=O)O)C(=O)O)cc3)cc2c(=O)[nH]1 | 0.56 |

target: T3, Proton-coupled folate transporter (Homo sapiens, UniProt Q96NT5); assay: Inhibition of [3H]MTX uptake at human PCFT expressed in Chinese hamster R2/PCFT4 cells at pH 5.5 measured after 5 mins by Dixon plot analysis; format: cell-based; settings: not given
T3 sequence (Q96NT5 whole entry): T2 sequence (whole entry)

| SMILES | Ki [nM] |
| --- | --- |
| Nc1nc2[nH]c(CCCc3ccc(C(=O)N[C@@H](CCC(=O)O)C(=O)O)cc3)cc2c(=O)[nH]1 | 220 |
| Nc1nc2[nH]c(CCOc3ccc(C(=O)N[C@@H](CCC(=O)O)C(=O)O)cc3)cc2c(=O)[nH]1 | 640 |
| Nc1nc2[nH]c(CCN(C(=O)C(F)(F)F)c3ccc(C(=O)N[C@@H](CCC(=O)O)C(=O)O)cc3)cc2c(=O)[nH]1 | 800 |

target: T4, Trifunctional purine biosynthetic protein adenosine-3 (Homo sapiens, UniProt P22102); assay: Inhibition of GARFTase in human KB cells expressing RFC/FR-alpha/PCFT assessed as decrease in incorporation of [14C(U)]-glycine into [14C]formyl GAR incubated for 1 hr followed by addition of [14C(U)]-glycine measured after 16 hrs in presence of azaserine; format: cell-based; settings: not given
T4 sequence (P22102 whole entry): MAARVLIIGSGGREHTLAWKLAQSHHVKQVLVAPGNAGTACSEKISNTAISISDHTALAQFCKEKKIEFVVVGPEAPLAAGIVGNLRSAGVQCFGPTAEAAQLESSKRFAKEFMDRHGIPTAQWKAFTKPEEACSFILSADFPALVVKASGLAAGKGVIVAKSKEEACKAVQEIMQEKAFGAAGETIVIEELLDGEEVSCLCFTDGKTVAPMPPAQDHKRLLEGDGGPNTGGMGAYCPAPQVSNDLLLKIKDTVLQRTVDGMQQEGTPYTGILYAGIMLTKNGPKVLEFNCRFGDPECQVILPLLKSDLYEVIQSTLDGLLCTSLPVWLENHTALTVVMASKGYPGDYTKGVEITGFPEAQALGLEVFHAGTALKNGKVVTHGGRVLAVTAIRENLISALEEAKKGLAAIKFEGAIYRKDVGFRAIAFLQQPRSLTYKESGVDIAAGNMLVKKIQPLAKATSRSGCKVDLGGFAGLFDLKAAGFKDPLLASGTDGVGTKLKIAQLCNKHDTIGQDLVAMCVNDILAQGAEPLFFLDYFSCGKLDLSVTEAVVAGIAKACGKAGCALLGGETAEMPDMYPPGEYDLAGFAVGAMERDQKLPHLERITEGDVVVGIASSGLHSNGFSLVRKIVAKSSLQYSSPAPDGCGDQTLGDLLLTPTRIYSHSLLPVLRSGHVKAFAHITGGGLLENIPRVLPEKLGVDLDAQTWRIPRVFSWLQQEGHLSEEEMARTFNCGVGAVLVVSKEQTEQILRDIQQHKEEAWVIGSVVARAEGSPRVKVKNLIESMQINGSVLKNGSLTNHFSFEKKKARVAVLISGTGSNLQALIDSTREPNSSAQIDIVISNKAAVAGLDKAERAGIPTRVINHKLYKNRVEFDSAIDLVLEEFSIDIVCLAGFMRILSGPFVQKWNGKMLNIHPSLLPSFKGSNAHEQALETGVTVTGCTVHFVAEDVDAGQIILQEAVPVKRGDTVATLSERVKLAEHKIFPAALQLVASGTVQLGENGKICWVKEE

| SMILES | IC50 [nM] |
| --- | --- |
| Nc1nc2[nH]c(CCOc3ccc(C(=O)N[C@@H](CCC(=O)O)C(=O)O)cc3)cc2c(=O)[nH]1 | 6.62 |
| Nc1nc2[nH]c(CCN(C(=O)C(F)(F)F)c3ccc(C(=O)N[C@@H](CCC(=O)O)C(=O)O)cc3)cc2c(=O)[nH]1 | 4.95 |

target: T2, Proton-coupled folate transporter (Homo sapiens); assay: Inhibition of [3H]MTX uptake at human PCFT expressed in Chinese hamster R2/PCFT4 cells at 10 uM and pH 6.8 measured after 5 mins; format: cell-based; settings: not given

| SMILES | inhibition [%] |
| --- | --- |
| Nc1nc2[nH]c(CCCc3ccc(C(=O)N[C@@H](CCC(=O)O)C(=O)O)cc3)cc2c(=O)[nH]1 | 40 to 60 |
| Nc1nc2[nH]c(CCOc3ccc(C(=O)N[C@@H](CCC(=O)O)C(=O)O)cc3)cc2c(=O)[nH]1 | 40 to 60 |
| Nc1nc2[nH]c(CCN(C(=O)C(F)(F)F)c3ccc(C(=O)N[C@@H](CCC(=O)O)C(=O)O)cc3)cc2c(=O)[nH]1 | 40 to 60 |

test system: KB; assay: Antiproliferative activity against human KB cells expressing human RFC/FR-alpha/PCFT assessed as reduction in cell viability measured after 96 hrs in presence of folic acid by Cell-Titer Blue fluorescence analysis; format: functional, cell-based; settings: not given

| SMILES | IC50 [nM] |
| --- | --- |
| Nc1nc2[nH]c(CCOc3ccc(C(=O)N[C@@H](CCC(=O)O)C(=O)O)cc3)cc2c(=O)[nH]1 | 704 |
| Nc1nc2[nH]c(CCN(C(=O)C(F)(F)F)c3ccc(C(=O)N[C@@H](CCC(=O)O)C(=O)O)cc3)cc2c(=O)[nH]1 | 924 |

test system: not listed separately; assay: Cytotoxicity in PCFT-null Chinese hamster R2 cells assessed as reduction in cell viability measured after 96 hrs by Cell-Titer Blue fluorescence analysis; format: cell-based; settings: Cricetulus griseus, R2, 96 h

| SMILES | IC50 [nM] |
| --- | --- |
| Nc1nc2[nH]c(CCOc3ccc(C(=O)N[C@@H](CCC(=O)O)C(=O)O)cc3)cc2c(=O)[nH]1 | > 1000 |
| Nc1nc2[nH]c(CCN(C(=O)C(F)(F)F)c3ccc(C(=O)N[C@@H](CCC(=O)O)C(=O)O)cc3)cc2c(=O)[nH]1 | > 1000 |

test system: not listed separately; assay: Cytotoxicity in RFC-null Chinese hamster R2 cells assessed as reduction in cell viability measured after 96 hrs by Cell-Titer Blue fluorescence analysis; format: cell-based; settings: Cricetulus griseus, R2, 96 h

| SMILES | IC50 [nM] |
| --- | --- |
| Nc1nc2[nH]c(CCOc3ccc(C(=O)N[C@@H](CCC(=O)O)C(=O)O)cc3)cc2c(=O)[nH]1 | 940 |
| Nc1nc2[nH]c(CCN(C(=O)C(F)(F)F)c3ccc(C(=O)N[C@@H](CCC(=O)O)C(=O)O)cc3)cc2c(=O)[nH]1 | > 1000 |

target: Folate receptor beta (Homo sapiens) (UniProt P14207); assay: Displacement of [3H]folic acid from human FR-beta receptor expressed in Chinese hamster D4 cells measured after 15 mins relative to folic acid; format: cell-based; settings: not given
Sequence (P14207 17-230 limits assumed): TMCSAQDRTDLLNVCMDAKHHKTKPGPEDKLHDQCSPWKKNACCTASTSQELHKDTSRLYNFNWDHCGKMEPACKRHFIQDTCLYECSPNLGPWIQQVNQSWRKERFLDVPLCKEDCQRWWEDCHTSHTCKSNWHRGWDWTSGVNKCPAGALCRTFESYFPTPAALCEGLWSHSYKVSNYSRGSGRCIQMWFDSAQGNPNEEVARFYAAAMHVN

| SMILES | inhibition [%] |
| --- | --- |
| Nc1nc2[nH]c(CCOc3ccc(C(=O)N[C@@H](CCC(=O)O)C(=O)O)cc3)cc2c(=O)[nH]1 | 60 to 110 |

target: Bifunctional purine biosynthesis protein ATIC (Homo sapiens) (UniProt P31939); assay: Inhibition of AICARFTase in human KB cells expressing RFC/FR-alpha/PCFT assessed as cell growth inhibition measured after 96 hrs in presence of 320 uM AICA by Cell-Titer Blue fluorescence analysis; format: cell-based; settings: not given
Sequence (P31939 whole entry, looked up): as the sequence (P31939 whole entry, looked up, one chain of several) above

| SMILES | inhibition |
| --- | --- |
| Nc1nc2[nH]c(CCOc3ccc(C(=O)N[C@@H](CCC(=O)O)C(=O)O)cc3)cc2c(=O)[nH]1 | Active |
| Nc1nc2[nH]c(CCN(C(=O)C(F)(F)F)c3ccc(C(=O)N[C@@H](CCC(=O)O)C(=O)O)cc3)cc2c(=O)[nH]1 | Active |

target: T4, Trifunctional purine biosynthetic protein adenosine-3; assay: Inhibition of recombinant N-terminal 6His-tagged human GARFTase assessed as formation of 5,8-dideazafolate from 10-formyl-5,8-dideazafolic acid measured at every 15 seconds over 20 min by spectrophotometric analysis; settings: not given

| SMILES | Ki [nM] |
| --- | --- |
| Nc1nc2[nH]c(CCOc3ccc(C(=O)N[C@@H](CCC(=O)O)C(=O)O)cc3)cc2c(=O)[nH]1 | 61 |
| Nc1nc2[nH]c(CCN(C(=O)C(F)(F)F)c3ccc(C(=O)N[C@@H](CCC(=O)O)C(=O)O)cc3)cc2c(=O)[nH]1 | 122 |

target: T2, Proton-coupled folate transporter (Homo sapiens); assay: Inhibition of [3H]MTX uptake at human PCFT expressed in Chinese hamster R2/PCFT4 cells at 10 uM and pH 5.5 measured after 5 mins; format: cell-based; settings: not given

| SMILES | inhibition |
| --- | --- |
| Nc1nc2[nH]c(CCCc3ccc(C(=O)N[C@@H](CCC(=O)O)C(=O)O)cc3)cc2c(=O)[nH]1 | Active |
| Nc1nc2[nH]c(CCOc3ccc(C(=O)N[C@@H](CCC(=O)O)C(=O)O)cc3)cc2c(=O)[nH]1 | 80 to 90% |
| Nc1nc2[nH]c(CCN(C(=O)C(F)(F)F)c3ccc(C(=O)N[C@@H](CCC(=O)O)C(=O)O)cc3)cc2c(=O)[nH]1 | 80 to 90% |

target: T1, GAR transformylase/AICAR transformylase (Homo sapiens); assay: Inhibition of GARFTase/AICARFTase in human KB cells expressing RFC/FR-alpha/PCFT assessed as cell growth inhibition measured after 96 hrs in presence of 60 uM adenosine by Cell-Titer Blue fluorescence analysis; format: cell-based; settings: not given

| SMILES | inhibition |
| --- | --- |
| Nc1nc2[nH]c(CCOc3ccc(C(=O)N[C@@H](CCC(=O)O)C(=O)O)cc3)cc2c(=O)[nH]1 | inactive |
| Nc1nc2[nH]c(CCN(C(=O)C(F)(F)F)c3ccc(C(=O)N[C@@H](CCC(=O)O)C(=O)O)cc3)cc2c(=O)[nH]1 | inactive |

test system: IGROV-1; assay: Antiproliferative activity against human IGROV1 cells expressing human FR-alpha/PCFT assessed as reduction in cell viability measured after 96 hrs in presence of folic acid by Cell-Titer Blue fluorescence analysis; format: functional, cell-based; settings: IGROV-1, 96 h

| SMILES | IC50 [nM] |
| --- | --- |
| Nc1nc2[nH]c(CCCc3ccc(C(=O)N[C@@H](CCC(=O)O)C(=O)O)cc3)cc2c(=O)[nH]1 | > 1000 |
